Publication PMC4913735, “Non‐glycosidic compounds can stimulate both human and mouse iNKT cells” (European Journal of Immunology, 2016)

Key:
murine iNKT cells = test: In vivo iNKT‐cell activation in mice: serum IFN‐γ/IL‐4 ELISA and splenic DC maturation; parameters: species or system C57BL/6 mice; conditions: for DC maturation (CD40 on CD11c+ cells) in iNKT cell deficient mice: CD1d−/− mice
Procedure: Figure 2 Enhanced in vivo potency of ThrCer 6. (A) Equilibrium binding and kinetics measurements of a soluble mouse iNKT‐cell TCR were assessed for mCD1d molecules refolded with α‐GalCer, ThrCer 6 and ThrCer 7. K d values (μM) were calculated from equilibrium binding. (B–D) Mice were immunized with 1 μg lipids i.v. and (B) IL‐4 and (C) IFN‐γ were detected by ELISA in blood sera at either 2 or 18 h, respectively. (D) At 18 h, immunized mice were sacrificed and splenocytes stained with anti‐CD11c and anti‐CD86 antibodies to determine the extent of maturation by the expression of CD86 on gated DCs (CD11c^+) using flow cytometry. (E and F) Mice were immunized i.v. with titrating doses of α‐GalCer, ThrCer, ThrCer 6, and ThrCer 7 and (E) IFN‐γ and (F) IL‐4 were detected in blood sera at 2, 12, and 18 h by ELISA. Median fluorescent intensity = MFI. (B–F) Data are shown as mean ± SEM (n = 3/group) and are representative of two independent experiments (A), three experiments (B–D), or a single experiment (E and F). *p < 0.05; Student's t‐test.
Concentrations of murine IFN‐γ and IL‐4 in serum were determined using standard sandwich ELISAs using the R4‐6A2 capture Ab for IFN‐γ (eBioscience), and the ID11 capture Ab for IL‐4 (Endogen). Biotinylated XMG1.2 (eBioscience) was used as the detection Ab for IFN‐γ and biotinylated BVD6‐24G2 (eBioscience) was used as the detection Ab for IL‐4. Human IFN‐γ in supernatants was determined using the capture Ab NIB42 (BD Pharmingen) and biotinylated 4S.B3 (BD Pharmingen) as the detection Ab.
Lipid compounds were solubilized in 150 mM NaCl and 0.5% Tween 20 (vehicle). All substances were diluted in PBS and administered either i.v., or i.m. Unless stated otherwise, doses used per injection were 400 μg OVA (Sigma) and 100 ng of lipid compounds or vehicle.
Human iNKT‐cells were expanded as described previously 34. For lipid titration studies, hCD1d C1R cells were pulsed with lipids overnight and following washes, cocultured with human iNKT cells. The presence of IFN‐γ was detected in supernatants by ELISA 12. For DC maturation studies, immature DCs were collected on day 4 and pulsed with lipids and iNKT cells 34. DC maturation was determined by the upregulation of CD86 by flow cytometry on a FACSCalibur with CellQuest software (BD) and analyzed with FlowJo software (Tree Star). For in vivo murine APC phenotype analysis the expression of CD86 or CD40 on CD11c^+ APCs from spleen were determined after 18 h post i.v. of 1 μg lipids on a CyAn cytometer and analyzed with FlowJo software (Tree Star).

NK cells = test: In vivo transactivation of NK cells (intracellular IFN‐γ, CD69) by flow cytometry; parameters: species or system mice; conditions: 1 μg i.v.; splenocytes at 12, 24 or 33 h
Procedure: Supplementary file EJI-46-1224-s001.pdf: Figure S1. […] Mice were immunized i.v. with 1 μg of lipids and splenocytes stained with anti‐CD11c and anti‐CD40 mAb to determine the extent of maturation by the expression of CD40 on gated DCs (CD11c+ cells) using flow cytometry. (n=3/group) Median Fluorescent Intensity=MFI. Error bars are mean ± SEM. Figure S2. IFN‐γ in serum of mice injected intramuscularly (i.m.) with iNKT cell agonists. C57BL/6 mice (n=4) or syngeneic CD1d knockout Mice (n=2) were injected intramuscularly with α‐GalCer, ThrCer 6 or vehicle. 18 hours later blood samples were tested for IFN‐γ using ELISA. As controls, mice (n=2) were injected intravenously with α‐GalCer or ThrCer 6. Error bars are mean ±SEM. one of two experiment is shown *p=0.0114. Figure S3. Transactivation of NK cells using non‐glycosidic analogues. Mice were immunized i.v. with 1 μg of lipids and sacrificed at 12 h, 24 h or 33 h post injection (n=3/group). Splenocytes were assessed by flow cytometry for the transactivation of NK cells (DX5+NK1.1+CD3‐ cells) using (B) the surface activation marker, CD69, or (A) intracellular IFN‐γ staining. Error bars are mean ± SEM. *p < 0.05. Representative of two independent experiments Figure S4. […] Data relating to numbers of ovalbumin specific T cells was analysed using the following gating stratagy: From top left to right and then bottom left to right. […]

B16 melanoma cells = test: B16 melanoma lung metastasis model; format: in vivo, C57BL/6 mice; conditions: 1 and 0.1 ng i.v.; versus ThrCer; comparable protection at 1000‐fold lower dose than ThrCer
Procedure: To this end, mice were injected i.v. with a range of doses of lipids (100, 1, 0.1 ng) and 3 days later, challenged with i.v. injected 5 × 10^5 B16 melanoma cells. Fourteen days later, the metastasis load in the lungs was quantified. […] With a reduction in lipid dose, the extent of tumor metastasis burden increased to varying degrees.
(A) Mice were immunized with 100, 1, or 0.1 ng of lipids i.v. 3 days before receiving an i.v. challenge with 5 × 10^5 B16 melanoma cells (n = 4/group). Two weeks later the lungs were removed and the number of metastatic nodules quantified as described in section “Materials and methods”. Data in the three panels are shown as mean ± SEM of tumor area as percentage of total lung area, and are representative of two independent experiments. (B) Representative lung lobe from each group is shown. Photographic images are representative of four lung lobes in each of two independent experiments.
C57BL/6 mice were challenged i.v. with syngeneic B16F10 melanoma, resuspended in PBS. A total of 5 × 10^5 cells in 200 μL were administered 3 days after administration of indicated doses of iNKT‐cell agonists (100, 1, or 0.1 ng). Two weeks after challenge, mice were killed, lungs removed, imaged and the percentage of lung tumor metastases quantified using Adobe Photoshop®.

| Compound | Ability to activate murine iNKT cells and mature DC in vivo (murine iNKT cells; 1 μg i.v., serum IL‐4 2 h, IFN‐γ 18 h, CD86 on CD11c+ DC, greater than ThrCer, similar to α‐GalCer) | DC maturation (CD40 on CD11c+ cells) in iNKT cell deficient mice (murine iNKT cells; 1 μg i.v.) | Serum IFN‐γ secretion after intramuscular injection (murine iNKT cells; i.m., 18 h post injection, compared with α‐GalCer) | Serum IFN‐γ secretion, in vivo dose titration (murine iNKT cells; i.v., after 12 and 18 h, compared with α‐GalCer) | Transactivation of NK cells (intracellular IFN‐γ, CD69) (NK cells) | Protection against B16 lung metastases at reduced lipid dose (B16 melanoma cells) |
| --- | --- | --- | --- | --- | --- | --- |
| CCCCCCCCCCCCCCCCCCCCCCCCCC(=O)N[C@@H](CO[C@H]1CC[C@H](O)[C@H](O)[C@H]1O)[C@H](O)[C@H](O)CCCCCCCCCCCCCC [ThrCer 6] | marked increase | do not mature DCs | higher | significantly enhanced | comparable transactivation of NK cells | far greater protection |
| CCCCCCCCCCCCCCCCCCCCCCCCCC(=O)NC(COC1CCCC(O)C(O)C1O)C(O)C(O)CCCCCCCCCCCCCC (stereo not drawn) [ThrCer 7] |  | do not mature DCs |  |  |  |  |
| CCCCCCCCCCCCCCCCCCCCCCCCCC(=O)N[C@@H](CO[C@H]1O[C@H](CO)[C@H](O)[C@H](O)[C@H]1O)[C@H](O)[C@H](O)CCCCCCCCCCCCCC [α‐GalCer, α‐galactosylceramide, reference compound] |  |  |  |  | comparable transactivation of NK cells | far greater protection |
